Measurements published in US4151300A, “Acetohydroxamic acids” (Laboratoire L. Lafon, priority 1976, dated 1979).

Columns and labels:
mice [1] = test: toxicity (isolated mice, intraperitoneal); assay type: in vivo
Protocol: (§1) The following text summarises a part of the results of the tests which were carried out with the products according to the invention, these products (unless otherwise stated) being administered intraperitoneally, in suspension in a gum solution (gum arabic), in a volume of 20 ml/kg in the case of mice and of 5 ml/kg in the case of rats.

mice [2] = test: electrical shock (convulsing effects); assay type: in vivo, mice (EVIC CEBA strain); details: mice, i.p., high doses (32 and 128 mg/kg)
Protocol: as §1
(§2) The test is carried out on batches of 10 sensitive mice (EVIC CEBA strain), 30 minutes after the administration of CRL 40,373.
(§3) Batches of 10 mice are subjected to the test thirty minutes after having received CRL 40,385.

mice [3] = test: traction (motor incoordination); assay type: in vivo, mice (EVIC CEBA strain)
mice [4] = test: motility reduced by habituation to a cage (residual motility); assay type: in vivo; details: i.p.
Protocol: as §1
Mice which have remained for 18 hours in the actimeters are given CRL 40,373. They are immediately replaced in their cages and, after a period of half an hour, their motility is recorded for 30 minutes (6 animals per dose, 12 comparison animals).
After remaining for 18 hours in the actimeters, the mice receive CRL 40,385. Immediately afterwards they are replaced in their cage and half an hour afterwards the recording of the motility starts and is continued for 30 minutes.

central nervous system = test: psychopharmacological study / behaviour; assay type: in vivo, mice
mice [5] = test: interaction with reserpine (hypothermia, ptosis); assay type: in vivo; details: i.p.
mice [6] = test: spontaneous motility (actimeter); assay type: in vivo; details: mice
Protocol: as §1
Thirty minutes after having been given CRL 40,373, the mice (6 per dose, 12 comparison animals) are placed in an actimeter, where their motility is recorded for half an hour.
Thirty minutes after having been given CRL 40,385, the mice are placed in actimeters where their motility is recorded for half an hour.

mice [7] = test: motility reduced by hypoxia treatment (motor recovery); assay type: in vivo; details: mice, i.p.
mice [8] = test: interaction with oxotremorine (temperature, trembling, peripheral cholinergic symptoms); assay type: in vivo; details: mice, i.p.
rats [9] = test: interaction with apomorphine (stereotype behaviour in rats); assay type: in vivo; details: rats, i.p.
Protocol: as §1
Batches of six rats are each given a subcutaneous injection of apomorphine (0.5 mg/kg) 30 minutes after the administration of CRL 40,373.
Batches of 6 rats are given a subcutaneous injection of 0.5 mg/kg of apomorphine 30 minutes after the administration of CRL 40,385.

rats [10] = test: interaction with amphetamine (stereotypies in rats); assay type: in vivo; details: rats, i.p.
Protocol: as §1
30 minutes after the administration of CRL 40,373, amphetamine is injected intraperitoneally at a dose of 2 mg/kg.
Thirty minutes after the administration of CRL 40,385 the rats are given an intraperitoneal injection of 2 mg/kg of amphetamine (6 animals per dose).

man = test: clinical use in man; assay type: in vivo
mice [11] = test: inter-group aggressiveness (number of fights); assay type: in vivo; details: mice, i.p.; for aggressiveness: large/high dose
Protocol: as §1
After three weeks' residence in each of the halves of a cage divided by an opaque partition, the mice receive CRL 40,373 thirty minutes before being brought together by withdrawing the partition.
After 18 days' residence on either side of a partition separating their cage in the middle, groups of 3 mice receive CRL 40,385 and are brought together half an hour later by withdrawing the partition, and the number of fights which take place in the course of 15 minutes is noted.

mice [12] = test: four-plate test; assay type: in vivo, mice (EVIC CEBA strain)
Protocol: as §1, §2, §3

`O=C(CCN1c2ccccc2Sc2ccccc21)N[O-].[Na+]` was tested, and the “LD-O (maximum non-lethal dose)” value (mice [1]; mice, i.p.) was “greater than 256 mg/kg”, the time to death (mice [1]; mice, i.p., 512 mg/kg) was 24 h and the time to death (mice [1]; mice, i.p., 1,024 mg/kg) was 0.583 h. The “lethal effects of the electric shock” value (mice [2]) was “increase in the lethal effects of the electric shock”, the motor incapacity (mice [3]; mice, i.p., high doses (32 and 128 mg/kg)) was “substantial motor incapacity” and the “motility reduced by habituation to the cage” value (mice [4]) was “not improved”. The “body temperature effect (product alone)” value (central nervous system; mouse, in vivo) was “hypothermia-inducing agent”, the reserpine-induced ptosis (mice [5]; 128 and 32 mg/kg) was “aggravates the ptosis induced by reserpine” and the reserpine-induced hypothermia (mice [5]; high dose) was “aggravates the hypothermia induced by reserpine”. For the same compound, the motor activity (mice [6]; i.p., from 8 mg/kg upwards) was “reduction of the motor activity”, the “motor recovery after hypoxia/anoxia by pressure reduction” value (mice [7]) was “not improved” and the oxotremorine-induced trembling (mice [8]) was “does not alter the intensity or duration of the trembling movements induced by oxotremorine”. For the same compound, the “temperature (oxotremorine-induced hypothermia)” value (mice [8]) was “contributes its effect to the hypothermia-inducing action of oxotremorine”.

For `O=C(CNC(=O)C(c1ccccc1)c1ccccc1)NO` [CRL 40,400, α-(Benzhydrylcarboxamido)-acetohydroxamic acid], the mortality (mice [1]; isolated mice, i.p., 128, 256, 512 and 1,024 mg/kg) was “does not cause any mortality whatsoever”, the apomorphine-induced stereotypies (rats [9]) was “does not modify the stereotypies induced in rats by apomorphine” and the amphetamine-induced stereotypies (rats [10]) was “does not modify the stereotypies induced in rats by apomorphine and amphetamine”. For the same compound, the “stereotypies induced by reserpine” value (mice [5]) was “does not modify the stereotypies”, the motility (mice [6]) was “acts on the motility of mice” and the “stereotypies induced by oxotremorine” value (mice [8]) was “does not modify the stereotypies”.

In the case of `O=C(CC(=O)N1c2ccccc2CCc2ccccc21)NO` [CRL 40,471, 5-(10,11-Dihydro-dibenz[b,f]azepino)-carbonylacetohydroxamic acid], the “LD-O (maximum non-lethal dose)” value (mice [1]; mouse, in vivo, ip) is reported as “greater than 1,024 mg/kg”, the clinical result (man; tablet 0.250 mg, 2 tablets per day) is reported as “good results clinically as a sedative” and the “motility reduced by habituation to the cage” value (mice [4]) is reported as “does not cause a resumption of the motor activity in mice habituated to their cage”. For the same compound, the apomorphine-induced stereotypies (rats [9]) was “does not alter the stereotypies induced by amphetamine and by apomorphine”, the “psychopharmacological profile / conclusion” value (central nervous system; mouse, in vivo) was “sedative activity” and the amphetamine-induced stereotypies (rats [10]) was “does not alter the stereotypies induced by amphetamine”. For the same compound, the reserpine-induced hypothermia (mice [5]) was “moderate antagonism against reserpine-induced hypothermia”, the inter-group aggressiveness (mice [11]) was “an effect of the anti-aggressive type appears to manifest itself in the absence of any hypomotility” and the aggressiveness (mice [11]) was “reduces the intra-specific aggressiveness in mice”. For the same compound, the spontaneous motility (mice [6]; i.p., 512 mg/kg) was “very greatly reduces the spontaneous motility of mice”, the “motor recovery after hypoxia/anoxia by pressure reduction” value (mice [7]) was “does not improve the motor recovery in mice” and the “motor recovery after hypoxia/anoxia by pressure reduction” value (mice [7]; 512 mg/kg) was “motor recovery comparable to that of the comparison mice”.

With `COc1ccc(C[S+]([O-])CC(=O)NO)cc1` (stereo not shown) [CRL 40,498, p-Methoxybenzyl-sulphinyl-acetohydroxamic acid] the “LD-O (maximum non-lethal dose)” value (mice [1]; mice, i.p.) was “greater than 1,204 mg/kg”, the symptoms / behaviour (mice [1]; mouse, in vivo, ip, 256 mg/kg) was “sedation, depressed respiration and reaction to the touch” and the clinical result (man; pill 100 mg, 2 pills per day) was “good results clinically as an anxiolytic agent”. For the same compound, the motor incapacity (mice [3]; high dose) was “without motor incapacity”, the “body temperature effect (product alone)” value (central nervous system; high dose) was “hypothermia” and the “sedation / sedative effect” value (central nervous system; high dose(s)) was “sedation”. The reactivity (central nervous system; mice, high dose) was “reduction in motility, in aggressiveness and in reactivity”, the reserpine-induced hypothermia (mice [5]) was “partial antagonism to reserpine-induced hypothermia” and the reserpine-induced ptosis (mice [5]) was “without alteration of the ptosis”. For the same compound, the “number of incorrect moves (four-plate test)” value (mice [12]; gastric administration, 512 to 32 mg/kg (and possibly less)) was “an increase in the number of incorrect moves”, the “number of incorrect moves (four-plate test)” value (mice [12]; i.p., 512 to 2 mg/kg) was “an increase in the number of incorrect moves” and the aggressiveness (mice [11]) was “reduction in motility, in aggressiveness”. For the same compound, the spontaneous motility (mice [6]; high dose) was “reduction in motility”, the “motor recovery after hypoxia/anoxia by pressure reduction” value (mice [7]) was “a discrete stimulant effect on the motility” and the “temperature (oxotremorine-induced hypothermia)” value (mice [8]) was “without alteration of the other hypothermia studied”.
